Test results: patent publication US20250051338A1, “TYK2 DEGRADERS AND USES THEREOF” (Kymera Therapeutics, Inc., priority 2021, published 2025)

What was measured:
Format in all cases: cell-based
[1] = target: T1, TYK2 (Homo sapiens, UniProt P29597); assay: TYK2 degradation MSD assay in human PBMC cells; design: endogenous in cells; host or cells: human PBMC; details: 4 to 24 hours incubation, read-out: TYK2 MSD DC50 rating in human PBMC
In short: (§1)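 MSD electrochemiluminescence readout of residual TYK2 in RIPA lysates after 4–24 h compound exposure at 37° C. Dosing: 9 concentrations, 1:3 steps, top 1 to 10 μM. DC50 fitted by four-parameter inhibitor vs. response regression.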

[2] = target: T1, TYK2; assay: TYK2 degradation MSD assay in EBV-B cells; design: endogenous in cells; host or cells: EBV-B cells; details: 4 to 24 hours incubation, read-out: TYK2 MSD DC50 rating in EBV-B
In short: as §1

[3] = target: T1, TYK2; assay: TYK2 degradation MSD assay in OCI-LY10 cells; design: endogenous in cells; host or cells: EBV-B cells; details: 4 to 24 hours incubation, read-out: TYK2 MSD DC50 rating in OCI-LY10
In short: as §1

T1 sequence (P29597 whole entry): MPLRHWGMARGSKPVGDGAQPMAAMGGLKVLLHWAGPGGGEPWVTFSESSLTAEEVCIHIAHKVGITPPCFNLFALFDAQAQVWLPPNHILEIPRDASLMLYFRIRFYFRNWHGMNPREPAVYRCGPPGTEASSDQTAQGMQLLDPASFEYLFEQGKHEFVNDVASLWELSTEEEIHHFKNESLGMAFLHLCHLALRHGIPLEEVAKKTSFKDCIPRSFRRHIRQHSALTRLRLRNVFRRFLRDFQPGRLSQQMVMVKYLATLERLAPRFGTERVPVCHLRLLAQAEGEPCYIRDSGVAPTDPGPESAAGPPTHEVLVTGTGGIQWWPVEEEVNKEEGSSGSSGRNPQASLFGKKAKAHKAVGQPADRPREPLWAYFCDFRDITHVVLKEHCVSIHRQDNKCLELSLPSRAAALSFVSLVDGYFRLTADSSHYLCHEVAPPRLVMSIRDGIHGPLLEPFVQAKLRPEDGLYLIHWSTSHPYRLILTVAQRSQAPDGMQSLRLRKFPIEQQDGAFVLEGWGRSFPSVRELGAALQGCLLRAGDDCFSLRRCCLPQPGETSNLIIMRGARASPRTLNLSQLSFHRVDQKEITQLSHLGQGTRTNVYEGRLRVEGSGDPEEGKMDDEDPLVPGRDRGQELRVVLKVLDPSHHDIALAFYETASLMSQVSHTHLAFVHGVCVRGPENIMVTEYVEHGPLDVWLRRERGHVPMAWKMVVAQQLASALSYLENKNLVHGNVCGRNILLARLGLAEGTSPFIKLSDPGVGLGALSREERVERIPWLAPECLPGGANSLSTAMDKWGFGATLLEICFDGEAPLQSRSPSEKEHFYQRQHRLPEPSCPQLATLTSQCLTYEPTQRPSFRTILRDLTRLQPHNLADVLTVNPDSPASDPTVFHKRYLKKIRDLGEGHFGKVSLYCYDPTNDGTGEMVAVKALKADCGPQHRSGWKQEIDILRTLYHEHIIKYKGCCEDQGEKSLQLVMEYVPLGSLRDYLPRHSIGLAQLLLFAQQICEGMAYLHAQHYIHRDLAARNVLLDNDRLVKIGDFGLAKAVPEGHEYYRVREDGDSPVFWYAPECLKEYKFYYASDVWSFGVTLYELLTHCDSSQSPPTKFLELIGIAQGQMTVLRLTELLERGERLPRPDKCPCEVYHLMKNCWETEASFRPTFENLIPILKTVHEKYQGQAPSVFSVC

Row | SMILES | DC50 [1] [nM] | DC50 [2] [nM] | DC50 [3] [nM]
1 | CNc1cc(Nc2cccn(-c3ccc(C(=O)N(C)C4CCN(c5ccc(-c6ccc7c(c6)n(C)c(=O)n7C6CCC(=O)NC6=O)cc5)C4)cn3)c2=O)nn2c(C(=O)N[C@@H]3C[C@@H]3F)cnc12 (stereo partly drawn) [Example K439] | > 100 | > 100 | < 1
2 | CNc1cc(Nc2cccn(-c3cc(C(=O)NCCCCCCCCc4cccc5c4n(C)c(=O)n5C4CCC(=O)NC4=O)ccn3)c2=O)nn2c(C(=O)N[C@@H]3C[C@@H]3F)cnc12 (stereo partly drawn) [Example K232] | 1 to 10 | > 100 | > 100
3 | CNc1cc(Nc2cccn(-c3ccc(C(=O)N4CCC5(CC4)CCN(c4ccc6c(c4)n(C)c(=O)n6C4CCC(=O)NC4=O)C5)cn3)c2=O)nn2c(C(=O)N[C@@H]3C[C@@H]3F)cnc12 (stereo partly drawn) [Example K392] | < 1 | > 100 | > 100
4 | CNc1cc(N2CCCc3c(-c4ccc(CC5CCC(c6ccc(-c7ccc8c(c7)n(C)c(=O)n8C7CCC(=O)NC7=O)cc6)CC5)cn4)cccc32)nn2c(C(=O)N[C@@H]3C[C@@H]3F)cnc12 (stereo partly drawn) [Example K501] | > 100 | > 100 | 10 to 100
5 | CNc1cc(Nc2cccn(-c3ccc(C(=O)N4CCC(CC#Cc5cccc6c5n(C)c(=O)n6C5CCC(=O)NC5=O)CC4)cn3)c2=O)nn2c(C(=O)N[C@@H]3C[C@@H]3F)cnc12 (stereo partly drawn) [Example K331] | < 1 | > 100 | > 100
6 | CNc1cc(Nc2cccn(-c3cc(C(=O)NCCOCCOCCOCCOCCc4cccc5c4n(C)c(=O)n5C4CCC(=O)NC4=O)ccn3)c2=O)nn2c(C(=O)N[C@@H]3C[C@@H]3F)cnc12 (stereo partly drawn) [Example K242] | > 100 | > 100 | > 100
7 | CNc1cc(Nc2cccc(CN3CCCC4(C3)CN(c3ncc(C#Cc5ccc6c(c5)n(C)c(=O)n6C5CCC(=O)NC5=O)cn3)C4)c2)nn2c(C(=O)NC3CC3)cnc12 (stereo not drawn) [Example K608] | > 100 | > 100 | 1 to 10
8 | CNc1cc(Nc2cccc(CN3CCN(c4ccc(-c5ccc6c(c5)n(C)c(=O)n6C5CCC(=O)NC5=O)cc4)CC3)c2)nn2c(C(=O)N[C@@H]3C[C@@H]3F)cnc12 (stereo partly drawn) [Example K486] | > 100 | > 100 | < 1
9 | Cn1c(=O)n(C2CCC(=O)NC2=O)c2cccc(CCCCCCNc3cc(Nc4cccn(-c5ccccn5)c4=O)nn4c(C(=O)N[C@@H]5C[C@@H]5F)cnc34)c21 (stereo partly drawn) [Example K206] | > 100 | > 100 | > 100
10 | CNc1cc(-c2cnn(C3CCN(C(=O)NCCCCCCc4ccc5c(c4)n(C)c(=O)n5C4CCC(=O)NC4=O)CC3)c2)nn2c(C(=O)N[C@@H]3C[C@@H]3F)cnc12 (stereo partly drawn) [Example K311] | > 100 | > 100 | > 100
11 | CNc1cc(Nc2cccn(-c3ccc(C(=O)N[C@H]4CC[C@H](CN5CCC6(CC5)CN(Cc5cccc7c5n(C)c(=O)n7C5CCC(=O)NC5=O)C6)CC4)cn3)c2=O)nn2c(C(=O)N[C@@H]3C[C@@H]3F)cnc12 (stereo partly drawn) [Example K430] | > 100 | 1 to 10 | < 1
12 | Cn1c(=O)n(C2CCC(=O)NC2=O)c2cccc(CCOCCOCCNc3cc(Nc4cccn(-c5ccccn5)c4=O)nn4c(C(=O)N[C@@H]5C[C@@H]5F)cnc34)c21 (stereo partly drawn) [Example K212] | > 100 | > 100 | > 100
13 | CNC(=O)c1cnc(Nc2ccc(N3CCN(c4cccc5c4n(C)c(=O)n5C4CCC(=O)NC4=O)CC3)cn2)cc1Nc1cccc(-c2ncc(F)cn2)c1OC (stereo not drawn) [Example K702] | > 100 | 1 to 10 | > 100
14 | CNc1cc(Nc2cccn(-c3cccc(C(=O)NCCCCCCc4ccc5c(c4)n(C)c(=O)n5C4CCC(=O)NC4=O)c3)c2=O)nn2c(C(=O)N[C@@H]3C[C@@H]3F)cnc12 (stereo partly drawn) [Example K221] | > 100 | > 100 | > 100
15 | CNc1cc(Nc2cccn(-c3cccc(C(=O)NCCCCc4ccc5c(c4)n(C)c(=O)n5C4CCC(=O)NC4=O)c3)c2=O)nn2c(C(=O)N[C@@H]3C[C@@H]3F)cnc12 (stereo partly drawn) [Example K227] | > 100 | > 100 | > 100
16 | CNC(=O)c1cnc(Nc2ccc(CN3CCN(CC#Cc4ccc5c(c4)n(C)c(=O)n5C4CCC(=O)NC4=O)CC3)cn2)cc1Nc1cccc(-c2ncc(F)cn2)c1OC (stereo not drawn) [Example K701] | < 1 | > 100 | < 1
17 | CNc1cc(Nc2cccc(-c3ccc(CN4CCN(C(=O)c5ccc(Cl)c(N6CCC(=O)NC6=O)c5)CC4)cn3)c2OC)nn2c(C(=O)N[C@@H]3C[C@@H]3F)cnc12 [Example K489] | > 100 | > 100 | > 100
18 | CNc1cc(-c2ccc(C(=O)NCCCCCCc3ccc4c(c3)n(C)c(=O)n4C3CCC(=O)NC3=O)cc2)nn2c(C(=O)N[C@@H]3C[C@@H]3F)cnc12 (stereo partly drawn) [Example K298] | > 100 | > 100 | > 100

Row | SMILES | DC50 [1] [nM] | DC50 [2] [nM] | DC50 [3] [nM]
19 | Cn1c(=O)n(C2CCC(=O)NC2=O)c2cccc(C#CCN3CCN(Cc4ccc(-c5cccc(Nc6ccc7ncc(C(=O)NC8CC8)n7n6)c5)nc4)CC3)c21 (stereo not drawn) [Example K433] | > 100 | > 100 | > 100
20 | CNc1cc(Nc2cccc(-c3ccc(C(=O)N4CCC(CN5CCN(c6ccc(-c7ccc8c(c7)n(C)c(=O)n8C7CCC(=O)NC7=O)cc6)CC5)CC4)cn3)c2OC)nn2c(C(=O)N[C@@H]3C[C@@H]3F)cnc12 (stereo partly drawn) [Example K629] | > 100 | > 100 | < 1
21 | CNc1cc(Nc2cccc(CN3CCC4(CCCN(CCC5C=c6c(n(C7CCC(=O)NC7=O)c(=O)n6C)=CC5)C4)C3)c2)nn2c(C(=O)NC3CC3)cnc12 (stereo not drawn) [Example K582] | > 100 | > 100 | > 100
22 | CNc1cc(-c2ccc(C(=O)NCCCCCCCCc3ccc4c(c3)n(C)c(=O)n4C3CCC(=O)NC3=O)cc2)nn2c(C(=O)N[C@@H]3C[C@@H]3F)cnc12 (stereo partly drawn) [Example K301] | > 100 | > 100 | > 100
23 | Cn1c(=O)n(C2CCC(=O)NC2=O)c2ccc(-c3ccc(CCCNc4cc(Nc5cccn(-c6ccccn6)c5=O)nn5c(C(=O)N[C@@H]6C[C@@H]6F)cnc45)nc3)cc21 (stereo partly drawn) [Example K365] | > 100 | > 100 | > 100
24 | CNc1cc(Nc2cccc(CN3CCC(CN(C)c4ccc5c(c4)n(C)c(=O)n5C4CCC(=O)NC4=O)CC3)c2)nn2c(C(=O)NC3CC3)cnc12 (stereo not drawn) [Example K606] | > 100 | > 100 | > 100
25 | CNc1cc(Nc2cccc(CN3CC4(CCN(c5cccc6c5n(C)c(=O)n6C5CCC(=O)NC5=O)CC4)C3)c2)nn2c(C(=O)NC3CC3)cnc12 (stereo not drawn) [Example K592] | > 100 | > 100 | 1 to 10
26 | Cn1c(=O)n(C2CCC(=O)NC2=O)c2cccc(CCOCCOCCOCCOCCNc3cc(Nc4cccn(-c5ccccn5)c4=O)nn4c(C(=O)N[C@@H]5C[C@@H]5F)cnc34)c21 (stereo partly drawn) [Example K214] | > 100 | > 100 | > 100
27 | Cn1c(=O)n(C2CCC(=O)NC2=O)c2cccc(CCCCCCCCNc3cc(Nc4cccn(-c5ccccn5)c4=O)nn4c(C(=O)N[C@@H]5C[C@@H]5F)cnc34)c21 (stereo partly drawn) [Example K209] | > 100 | > 100 | > 100
28 | CNc1cc(N2CCc3c(N4CCC(CN5CCN(c6ccc(-c7ccc8c(c7)n(C)c(=O)n8C7CCC(=O)NC7=O)cc6)CC5)CC4)cccc32)nn2c(C(=O)N[C@@H]3C[C@@H]3F)cnc12 (stereo partly drawn) [Example K551] | > 100 | 1 to 10 | > 100
29 | CNc1cc(Nc2cccn(-c3ccc(C(=O)NCCCCCCCCCc4cccc5c4n(C)c(=O)n5C4CCC(=O)NC4=O)cn3)c2=O)nn2c(C(=O)N[C@@H]3C[C@@H]3F)cnc12 (stereo partly drawn) [Example K266] | < 1 | > 100 | > 100
30 | Cn1c(=O)n(C2CCC(=O)NC2=O)c2ccc(CCCCCCCCCCCCNc3cc(Nc4cccn(-c5ccccn5)c4=O)nn4c(C(=O)N[C@@H]5C[C@@H]5F)cnc34)cc21 (stereo partly drawn) [Example K211] | > 100 | > 100 | > 100
31 | CNc1cc(Nc2cccc(-c3ccc(CN4CCN(c5ccc(-c6ccc7c(c6)n(C)c(=O)n7C6CCC(=O)NC6=O)cc5)CC4)cn3)c2)nc2c(C(=O)N[C@@H]3C[C@@H]3F)cnn12 (stereo partly drawn) [Example K508] | > 100 | 1 to 10 | < 1
32 | CNc1cc(N2CCc3c(-c4ccc(CN5CCC6(CC5)CCN(c5ccc(-c7ccc8c(c7)n(C)c(=O)n8C7CCC(=O)NC7=O)cc5)CC6)cn4)cccc32)nn2c(C(=O)N[C@@H]3C[C@@H]3F)cnc12 (stereo partly drawn) [Example K609] | > 100 | > 100 | 1 to 10
33 | CNc1cc(N2CCOc3c(-c4ccc(CN5CCN(c6ccc(-c7ccc8c(c7)n(C)c(=O)n8C7CCC(=O)NC7=O)cc6)CC5)cn4)cccc32)nn2c(C(=O)N[C@@H]3C[C@@H]3F)cnc12 (stereo partly drawn) [Example K491] | > 100 | > 100 | 10 to 100
34 | CNc1cc(Nc2cccn(C3CCN(C(=O)N(C)CC4CCN(Cc5cccc6c5n(C)c(=O)n6C5CCC(=O)NC5=O)CC4)CC3)c2=O)nn2c(C(=O)N[C@@H]3C[C@@H]3F)cnc12 (stereo partly drawn) [Example K397] | > 100 | 1 to 10 | > 100
35 | CCc1nn(-c2cccc(F)c2OC)c2cc(Nc3ccc(CN(C)C4CCN(c5cccc6c5n(C)c(=O)n6C5CCC(=O)NC5=O)CC4)cn3)ncc12 (stereo not drawn) [Example K537] | > 100 | > 100 | > 100
